Values joined by “and” are separate entries in the source; they are usually repeats but may differ in a detail not shown here. Identical values can stand only once. Like-named read-outs stand apart in the source and are kept apart here.
Legend:
CypD = CypD (Homo sapiens, UniProt P30405); experiment: Chymotrypsin coupled prolyl-isomerase assay
CypB = biological target: T1, CypB (Homo sapiens, UniProt P23284); experiment: biochemical
T1 construct: PPIB (UniProtKB Entry P23284: residues 34–216); His6 with TEV site (2BT vector leader) (N); made in house; host or cells: E. coli BL21(DE3)
Method: (§1) Adapting a previously described protocol, with an Agilent Bravo Velocity 11 with a 384ST head, 90 µL assay buffer (25 mM HEPES pH 7.3, 100 mM NaCl, 0.01% Triton X-100) containing 5.28 nM cyclophilin was added into a flat, clear-bottom, black 384-well plate pre-chilled in a Corning CoolBox at 2–3 °C. Five microliters of compound pre-dissolved in 5% DMSO/assay buffer was then added to appropriate wells and incubated at 2–3 °C for 5 min. Five microliters of 0.5 mM α-chymotrypsin from bovine pancreas (Type II, lyophilized powder, Millipore-Sigma) in 20% 1 mM HCl/Assay Buffer was then added to each well and incubated at 2–3 °C for 5 min. The plate was then quickly transferred to a FLIPR Tetra High-Throughput Cellular Screening System (Molecular Devices). Using the internal liquid handling system of the FLIPR, 1 µL 0.5 mM Suc-AAPF-AMC (Chymotrypsin Substrate II, Millipore-Sigma) dissolved in 0.55 M LiCl/2,2,2-trifluoroethanol was added to each well, which was then mixed for 5 s, followed by immediate fluorescence measurements every 1 s for 330 s using a 360–380 nm excitation LED module and a 400–460 nm emission filter. Final concentrations of the plate include 5 nM cyclophilin, 0.25% DMSO, 25 µM α-chymotrypsin, 5 µM Suc-AAPF-AMC. Raw fluorescence data was analyzed by non-linear regression analysis with Prism v.9 by fitting one-phase association curves to each well. […] Rate constants calculated for each well (s^−1) were then normalized to substrate only (no prolyl-isomerase) and enzyme + substrate only controls. IC50 values were calculated as the value at which 50% inhibition was achieved on the non-linear regression fitted curve of each compound.

Cyp40 = Cyp40 (Homo sapiens, UniProt Q08752); experiment: Chymotrypsin coupled prolyl-isomerase assay
Method: as §1

T1 sequence (P23284 34-216): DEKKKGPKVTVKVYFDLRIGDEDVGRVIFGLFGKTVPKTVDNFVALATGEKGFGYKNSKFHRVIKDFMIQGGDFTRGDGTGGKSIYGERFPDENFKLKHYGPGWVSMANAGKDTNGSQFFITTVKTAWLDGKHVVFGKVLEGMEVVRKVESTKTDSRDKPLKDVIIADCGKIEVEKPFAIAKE
CypD, sequence (P30405 45-207): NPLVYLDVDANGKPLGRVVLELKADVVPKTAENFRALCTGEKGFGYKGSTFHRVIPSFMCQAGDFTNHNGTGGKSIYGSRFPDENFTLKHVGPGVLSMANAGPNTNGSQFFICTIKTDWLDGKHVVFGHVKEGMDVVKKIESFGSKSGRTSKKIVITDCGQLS
Cyp40, sequence (Q08752 1-183): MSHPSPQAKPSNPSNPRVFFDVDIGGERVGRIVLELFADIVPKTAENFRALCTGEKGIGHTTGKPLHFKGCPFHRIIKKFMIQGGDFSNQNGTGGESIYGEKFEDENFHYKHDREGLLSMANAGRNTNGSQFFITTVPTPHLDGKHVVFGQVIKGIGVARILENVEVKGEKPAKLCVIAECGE

## NC(=O)C1CCNC(=O)C=CC(=O)N2CCCC(Cc3ccccc3)(C2)C(=O)NC(Cc2ccc(-c3ccc(C=O)c(B(O)O)c3)cc2)C(=O)NCc2ccccc2CC(=O)N1 (stereo not drawn) [Compound C3A]
CypD
  IC50: 600 ± 100 nM
CypD; Dose 0.00114312 µM
  CypD prolyl-isomerase raw dose-response reading (Fig. 6c): 0.06909 and 0.06564 and 0.08467
CypD; Dose 0.00342936 µM
  CypD prolyl-isomerase raw dose-response reading (Fig. 6c): 0.0763 and 0.06566 and 0.07012
CypD; Dose 0.00457247 µM
  CypD prolyl-isomerase raw dose-response reading (Fig. 6c): 0.04911 and 0.0434 and 0.06663 and 0.05943 and 0.05791 and 0.04481
CypD; Dose 0.0102881 µM
  CypD prolyl-isomerase raw dose-response reading (Fig. 6c): 0.06833 and 0.05597 and 0.06694
CypD; Dose 0.0308642 µM
  CypD prolyl-isomerase raw dose-response reading (Fig. 6c): 0.07034 and 0.05622 and 0.06
CypD; Dose 0.0411523 µM
  CypD prolyl-isomerase raw dose-response reading (Fig. 6c): 0.05515 and 0.05553 and 0.04718 and 0.06514 and 0.05753 and 0.05809 and 0.04157
CypD; Dose 0.0925926 µM
  CypD prolyl-isomerase raw dose-response reading (Fig. 6c): 0.06297 and 0.05517 and 0.06275
CypD; Dose 0.277778 µM
  CypD prolyl-isomerase raw dose-response reading (Fig. 6c): 0.05848 and 0.04977 and 0.05604
CypD; Dose 0.833333 µM
  CypD prolyl-isomerase raw dose-response reading (Fig. 6c): 0.04291 and 0.04333 and 0.04298
CypD; Dose 2.5 µM
  CypD prolyl-isomerase raw dose-response reading (Fig. 6c): 0.03189 and 0.02949 and 0.03114
CypD; IC50 CypD, Independent replicate 1, mean±SEM of 3 technical replicates
  IC50: 700 ± 300 nM
CypD; IC50 CypD, Independent replicate 2
  IC50: 600 ± 300 nM
CypD; IC50 CypD, Independent replicate 3
  IC50: 410 ± 80 nM
CypD; IC50 CypD, Independent replicate 4
  IC50: ~700 nM
CypD; Wild-Type Cyclophilin Prolyl Isomerase Inhibition IC50 Values, CypD, wild-type CypD
  IC50: 600 nM
CypB; Dose 0.00114312 µM
  CypB prolyl-isomerase raw dose-response reading (Fig. 6c): 0.06934 and 0.06783 and 0.08183
CypB; Dose 0.00342936 µM
  CypB prolyl-isomerase raw dose-response reading (Fig. 6c): 0.07621 and 0.06975 and 0.07172
CypB; Dose 0.0102881 µM
  CypB prolyl-isomerase raw dose-response reading (Fig. 6c): 0.07116 and 0.04746 and 0.08093
CypB; Dose 0.0308642 µM
  CypB prolyl-isomerase raw dose-response reading (Fig. 6c): 0.07891 and 0.06745 and 0.0815
CypB; Dose 0.0925926 µM
  CypB prolyl-isomerase raw dose-response reading (Fig. 6c): 0.06054 and 0.05873 and 0.07182
CypB; Dose 0.277778 µM
  CypB prolyl-isomerase raw dose-response reading (Fig. 6c): 0.07925 and 0.05977 and 0.05725
CypB; Dose 0.833333 µM
  CypB prolyl-isomerase raw dose-response reading (Fig. 6c): 0.07516 and 0.05333 and 0.06224
CypB; Dose 2.5 µM
  CypB prolyl-isomerase raw dose-response reading (Fig. 6c): 0.05113 and 0.04833 and 0.05428
CypB; Independent replicate 1, read-out: IC50 CypB
  IC50: ~3000 nM
CypB; Independent replicate 2, read-out: IC50 CypB
  IC50: 7000 ± 3000 nM
CypB; Independent replicate 3, read-out: IC50 CypB
  IC50: 3000 ± 1000 nM
CypB; Independent replicate 4, read-out: IC50 CypB
  IC50: 3000 ± 2000 nM
CypB; wild-type CypB, read-out: Wild-Type Cyclophilin Prolyl Isomerase Inhibition IC50 Values, CypB
  IC50: 4000 nM
Cyp40; Dose 0.00457247 µM
  Cyp40 prolyl-isomerase raw dose-response reading (Fig. 6c): 0.0614 and 0.06993 and 0.05711
Cyp40; Dose 0.0137174 µM
  Cyp40 prolyl-isomerase raw dose-response reading (Fig. 6c): 0.05865 and 0.05903 and 0.06506
Cyp40; Dose 0.0411523 µM
  Cyp40 prolyl-isomerase raw dose-response reading (Fig. 6c): 0.05035 and 0.06856 and 0.04615
Cyp40; Dose 0.123457 µM
  Cyp40 prolyl-isomerase raw dose-response reading (Fig. 6c): 0.06664 and 0.05611 and 0.06364
Cyp40; Dose 0.37037 µM
  Cyp40 prolyl-isomerase raw dose-response reading (Fig. 6c): 0.05889 and 0.05946 and 0.05108
Cyp40; Dose 1.11111 µM
  Cyp40 prolyl-isomerase raw dose-response reading (Fig. 6c): 0.05961 and 0.05287 and 0.0489
Cyp40; Dose 3.33333 µM
  Cyp40 prolyl-isomerase raw dose-response reading (Fig. 6c): 0.034 and 0.04378 and 0.03695
Cyp40; Dose 10 µM
  Cyp40 prolyl-isomerase raw dose-response reading (Fig. 6c): 0.03483 and 0.03698 and 0.03412
Cyp40; IC50 Cyp40, Independent replicate 1
  IC50: 3000 ± 1000 nM
Cyp40; IC50 Cyp40, Independent replicate 2
  IC50: 1400 ± 500 nM
Cyp40; IC50 Cyp40, Independent replicate 3
  IC50: 1400 ± 300 nM
Cyp40; IC50 Cyp40, Independent replicate 4
  IC50: 1900 ± 500 nM
Cyp40; Wild-Type Cyclophilin Prolyl Isomerase Inhibition IC50 Values, Cyp40, wild-type Cyp40
  IC50: 1800 nM

— article PMC9596378, “Discovery and molecular basis of subtype-selective cyclophilin inhibitors” (Nature Chemical Biology, 2022)
